Measurements from ChEMBL document CHEMBL1201862, “PubChem BioAssay data set” (2004).
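Dose response: 5 concentrations. Exposure: 48 h. Format: 96-well plates. Endpoint: linear interpolation; highest concentration if not reached. GI50 = concentration required for 50% inhibition of growth.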 Calls of active or inactive are those of the source. No stated cut-off is given here; in the data, active = GI50 up to about 1.1 µM and inactive = higher. Where a SMILES comes first, the peptide text is derived from it. The star is where a group is joined. Cbz = O=C(OCc1ccccc1)*

Key:
Test in all cases: growth of human tumour cells (NCI), 48 h
786-0 = test system: 786-0
A549 = test system: A549
EKVX = test system: EKVX
HCC 2998 = test system: HCC 2998
HCT-15 = test system: HCT-15
MDA-MB-435 = test system: MDA-MB-435
MOLT-4 = test system: MOLT-4
Malme-3M = test system: Malme-3M
NCI-H226 = test system: NCI-H226
NCI/ADR-RES = test system: NCI/ADR-RES
RPMI-8226 = test system: RPMI-8226
SF-295 = test system: SF-295
SK-MEL-28 = test system: SK-MEL-28
SK-MEL-5 = test system: SK-MEL-5
SK-OV-3 = test system: SK-OV-3
SR = test system: SR
UACC-62 = test system: UACC-62
SF-539 = test system: SF-539
SK-MEL-2 = test system: SK-MEL-2
UACC-257 = test system: UACC-257

Row | Compound | GI50 (786-0) | GI50 (A549) | GI50 (EKVX) | GI50 (HCC 2998) | GI50 (HCT-15) [µM] | GI50 (MDA-MB-435) | GI50 (MOLT-4) | GI50 (Malme-3M) | GI50 (NCI-H226) | GI50 (NCI/ADR-RES) | GI50 (RPMI-8226) | GI50 (SF-295) | GI50 (SK-MEL-28) | GI50 (SK-MEL-5) | GI50 (SK-OV-3) | GI50 (SR) | GI50 (UACC-62) | GI50 (SF-539) | GI50 (SK-MEL-2) | GI50 (UACC-257)
1 | COC(=O)C(CC(C)C)NC(=O)C(CCCNC(=N)N)NC(=O)OCc1ccccc1 (stereo not drawn) (Cbz-Arg-Leu-OMe; configuration not given here) | > 100 µM (inactive) | > 100 µM (inactive) | > 100 µM (inactive) | > 100 µM (inactive) | > 100 | > 100 µM (inactive) | > 100 µM (inactive) | > 100 µM (inactive) | > 100 µM (inactive) | > 100 µM (inactive) | > 100 µM (inactive) | > 100 µM (inactive) | > 100 µM (inactive) | > 100 µM (inactive) | > 100 µM (inactive) | > 100 µM (inactive) | > 100 µM (inactive) |  |  | 
2 | O=C1C(Cl)C2(CC(/C=C/c3ccccc3Cl)=NN2c2cccc(S(=O)(=O)O)c2)N1c1nc2ccccc2s1 (stereo unspecified) | 21.9 µM (inactive) | 72.1 µM (inactive) | 49 µM (inactive) | 85.9 µM (inactive) | 15.8 | 1.5 µM (inactive) | 10.3 µM (inactive) | 27 µM (inactive) | 30.2 µM (inactive) | > 100 µM (inactive) | 9.29 µM (inactive) |  | > 100 µM (inactive) | 21.4 µM (inactive) |  | 1.35 µM (inactive) | 18.9 µM (inactive) | 7.67 µM (inactive) | > 100 µM (inactive) | 66.8 µM (inactive)
3 | CC(=O)Oc1ccc(/C=C/C(=O)NCC(NC(=O)/C=C/c2ccc(OC(C)=O)c(OC(C)=O)c2)C(=O)O)cc1OC(C)=O (stereo unspecified) | > 100 µM (inactive) | > 100 µM (inactive) | > 100 µM (inactive) | > 100 µM (inactive) | > 100 | > 100 µM (inactive) | 20.1 µM (inactive) | > 100 µM (inactive) | > 100 µM (inactive) | > 100 µM (inactive) | > 100 µM (inactive) | > 100 µM (inactive) | > 100 µM (inactive) | > 100 µM (inactive) |  | 33.4 µM (inactive) | > 100 µM (inactive) | > 100 µM (inactive) | > 100 µM (inactive) | > 100 µM (inactive)
4 | COc1cc(/C=C/C(=O)C2(C(=O)/C=C/c3cc(OC)c(OC)c(OC)c3)CCCCC2)cc(OC)c1OC | 43.2 µM (inactive) | > 100 µM (inactive) | 27.5 µM (inactive) | 58.6 µM (inactive) | 33.3 | 21.5 µM (inactive) |  | 37.6 µM (inactive) | 32.7 µM (inactive) | 32.1 µM (inactive) | 18.3 µM (inactive) | 34.8 µM (inactive) | 46.3 µM (inactive) | 34.8 µM (inactive) | 68.9 µM (inactive) | 19.4 µM (inactive) | 26.2 µM (inactive) | 19 µM (inactive) | > 100 µM (inactive) | 76.9 µM (inactive)
5 | COC(=O)c1cc(CC2Cc3cc4c(cc3C2=O)CCC4)cc2c1CCC2 (stereo unspecified) | 55.2 µM (inactive) | > 100 µM (inactive) | > 100 µM (inactive) | > 100 µM (inactive) | > 100 | > 100 µM (inactive) | > 100 µM (inactive) | 37.8 µM (inactive) | > 100 µM (inactive) | 81.5 µM (inactive) | > 100 µM (inactive) | 35.1 µM (inactive) | > 100 µM (inactive) |  | > 100 µM (inactive) | > 100 µM (inactive) | 95.1 µM (inactive) | > 100 µM (inactive) | 63.7 µM (inactive) | 77.6 µM (inactive)
6 | CC(C)(CO)CNc1cc(Cl)nc(N)n1 | > 100 µM (inactive) | > 100 µM (inactive) | > 100 µM (inactive) | > 100 µM (inactive) | > 100 | > 100 µM (inactive) | > 100 µM (inactive) | > 100 µM (inactive) | > 100 µM (inactive) | > 100 µM (inactive) | > 100 µM (inactive) | > 100 µM (inactive) | > 100 µM (inactive) | > 100 µM (inactive) |  | > 100 µM (inactive) | > 100 µM (inactive) | > 100 µM (inactive) | > 100 µM (inactive) | > 100 µM (inactive)
